In patent US9802918B2, “Pyridineamine compounds useful as Pim kinase inhibitors” (Incyte Corporation, priority 2015, dated 2017):

What was measured:
Assay type in all cases: biochemical
Pim-3 = Pim-3 (Homo sapiens (Human), UniProt Q86V86); assay: Pim-3 kinase assay; settings: 1 mM ATP; read-out: Pim3 IC50
Summary of the method: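 Human Pim-3 at 1.25 pM phosphorylated […] biotin-BAD peptide with 1 mM ATP for 1 h at 25° C, in pH 7.5 Tris buffer with 5 mM MgCl2 and 5 mM DTT. Reactions were stopped with EDTA buffer containing phospho-Bad (Ser112) antibody and AlphaScreen donor/acceptor beads. Plates were read after 1 h dark incubation at room temperature.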

Pim-2 = Pim-2 (Homo sapiens (Human), UniProt Q9P1W9); assay: Pim-2 kinase assay; settings: 1 mM ATP; read-out: Pim2 IC50
Pim-2, sequence (Q9P1W9 whole entry): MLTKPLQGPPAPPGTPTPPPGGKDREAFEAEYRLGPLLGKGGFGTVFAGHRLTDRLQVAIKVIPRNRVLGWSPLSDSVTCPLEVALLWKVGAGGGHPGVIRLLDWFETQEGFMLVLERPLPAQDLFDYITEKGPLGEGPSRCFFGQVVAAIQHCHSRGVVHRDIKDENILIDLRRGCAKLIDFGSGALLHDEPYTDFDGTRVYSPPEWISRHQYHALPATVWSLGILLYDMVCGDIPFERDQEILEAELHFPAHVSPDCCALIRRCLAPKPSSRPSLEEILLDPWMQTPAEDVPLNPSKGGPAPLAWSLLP
Summary of the method: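 Pim-2 (1 nM) with fluorescein-CREBtide ([…]) and 1 mM ATP in Tris pH 7.5, MgCl2, DTT buffer, 2 h at 25 °C. Stopped with EDTA plus Tb-anti-CREB pSer133 antibody; phosphorylation read by TR-FRET after 30 min.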

Pim-1 = Pim-1 (Homo sapiens (Human), UniProt P11309); assay: Pim-1 kinase assay; settings: 1 mM ATP; read-out: Pim1 IC50
Pim-1, sequence (P11309 whole entry): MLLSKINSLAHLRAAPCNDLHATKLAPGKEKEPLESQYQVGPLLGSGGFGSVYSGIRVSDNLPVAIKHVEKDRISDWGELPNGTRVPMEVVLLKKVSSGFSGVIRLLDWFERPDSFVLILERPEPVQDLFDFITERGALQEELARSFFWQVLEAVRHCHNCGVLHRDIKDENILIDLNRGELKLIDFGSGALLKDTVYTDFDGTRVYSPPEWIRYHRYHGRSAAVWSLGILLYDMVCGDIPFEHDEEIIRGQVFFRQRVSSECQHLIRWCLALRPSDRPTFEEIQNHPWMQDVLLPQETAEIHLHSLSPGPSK
Description: Supplementation of the STOP buffer with beads and stopping the reactions were done under reduced light. Prior to the stopping reactions STOP buffer with beads was preincubated for 1 h in the dark at room temperature. After stopping the reactions, plates were incubated for 1 h in the dark at room temperature before reading on a PHERAstar FS plate reader (BMG Labtech) under reduced light.

SMILES | IC50 (Pim-3) | IC50 (Pim-2) | IC50 (Pim-1)
C[C@@H]1C[C@H](N)CN(c2ccncc2NCc2ccc(F)c(-c3c(F)cc(CN4CC[C@H](F)C4)cc3F)n2)C1 [Example 56, 4-((3S,5R)-3-amino-5-methylpiperidin-1-yl)-N-((6-(2,6-difluoro-4-(((S)-3-fluoropyrrolidin-1-yl)methyl)phenyl)-5-fluoropyridin-2-yl)methyl)pyridin-3-amine] | ≤ 10 nM | ≤ 100 nM | < 10 nM
C[C@H]1CN(c2ccncc2NCc2ccc(F)c(C3=CCCCC3)n2)C[C@@H](N)[C@@H]1O [Example 57] | ≤ 10 nM | 100 to 1000 nM | < 10 nM
C[C@@H]1C[C@H](N)CN(c2ccncc2NCc2ccc(F)c(C3CCCCC3)n2)C1 [Example 58, 4-[(3S,5R)-3-Amino-5-methylpiperidin-1-yl]-N-[(6-cyclohexyl-5-fluoropyridin-2-yl)methyl]pyridin-3-amine] | 10 to 50 nM | 100 to 1000 nM | < 10 nM
COC1(c2cc(F)c(-c3nc(CNc4cnccc4N4C[C@@H](N)[C@H](O)[C@@H](C)C4)ccc3F)c(F)c2)CCOCC1 [Example 59, (3R,4R,5S)-3-Amino-1-{3-[({6-[2,6-difluoro-4-(4-methoxytetrahydro-2H-pyran-4-yl)phenyl]-5-fluoropyridin-2-yl}methyl)amino]pyridin-4-yl}-5-methylpiperidin-4-ol] | ≤ 10 nM | 100 to 1000 nM | < 10 nM
COC1(c2cc(F)c(-c3nc(CNc4cnccc4N4C[C@H](C)C[C@H](N)C4)ccc3F)c(F)c2)CCOCC1 [Example 60, 4-[(3S,5R)-3-Amino-5-methylpiperidin-1-yl]-N-({6-[2,6-difluoro-4-(4-methoxytetrahydro-2H-pyran-4-yl)phenyl]-5-fluoropyridin-2-yl}methyl)pyridin-3-amine] | ≤ 10 nM | 100 to 1000 nM | < 10 nM
C[C@H]1CN(c2ccncc2NCc2ccc(F)c(-c3c(F)cc(C4(F)CCOCC4)cc3F)n2)C[C@@H](N)[C@@H]1O [Example 61, (3R,4R,5S)-3-Amino-1-{3-[({6-[2,6-difluoro-4-(4-fluorotetrahydro-2H-pyran-4-yl)phenyl]-5-fluoropyridin-2-yl}methyl)amino]pyridin-4-yl}-5-methylpiperidin-4-ol] | ≤ 10 nM | ≤ 100 nM | < 10 nM
C[C@@H]1C[C@H](N)CN(c2ccncc2NCc2ccc(F)c(-c3c(F)cc(C4(F)CCOCC4)cc3F)n2)C1 [Example 62, 4-[(3S,5R)-3-Amino-5-methylpiperidin-1-yl]-N-({6-[2,6-difluoro-4-(4-fluorotetrahydro-2H-pyran-4-yl)phenyl]-5-fluoropyridin-2-yl}methyl)pyridin-3-amine] | ≤ 10 nM | ≤ 100 nM | < 10 nM
C[C@H]1CN(c2ccncc2NCc2ccc(F)c(-c3c(F)cc(C4CCOCC4)cc3F)n2)C[C@@H](N)[C@@H]1O [Example 63, (3R,4R,5S)-3-Amino-1-{3-[({6-[2,6-difluoro-4-(tetrahydro-2H-pyran-4-yl)phenyl]-5-fluoropyridin-2-yl}methyl)amino]pyridin-4-yl}-5-methylpiperidin-4-ol] | ≤ 10 nM | ≤ 100 nM | < 10 nM
C[C@@H]1C[C@H](N)CN(c2ccncc2NCc2ccc(F)c(-c3c(F)cc(C4CCOCC4)cc3F)n2)C1 [Example 64, 4-[(3S,5R)-3-Amino-5-methylpiperidin-1-yl]-N-({6-[2,6-difluoro-4-(tetrahydro-2H-pyran-4-yl)phenyl]-5-fluoropyridin-2-yl}methyl)pyridin-3-amine] | ≤ 10 nM | ≤ 100 nM | < 10 nM
N[C@H]1C[C@@H](C(F)(F)F)CN(c2ccncc2NCc2ccc(F)c(-c3c(F)cc(C4CCOCC4)cc3F)n2)C1 [Example 65, 4-((3S,5R)-3-Amino-5-(trifluoromethyl)piperidin-1-yl)-N-((6-(2,6-difluoro-4-(tetrahydro-2H-pyran-4-yl)phenyl)-5-fluoropyridin-2-yl)methyl)pyridin-3-amine] | ≤ 10 nM | ≤ 100 nM | < 10 nM
C[C@@H]1C[C@H](N)C[C@H](c2ccncc2NCc2ccc(F)c(-c3c(F)cccc3F)n2)C1 [Example 66, 4-[(1R,3S,5S)-3-Amino-5-methylcyclohexyl]-N-{[6-(2,6-difluorophenyl)-5-fluoropyridin-2-yl]methyl}pyridin-3-amine] | ≤ 10 nM | 100 to 1000 nM | < 10 nM
C[C@@H]1C[C@H](N)C[C@H](c2ccncc2NCc2ccc(F)c(-c3c(F)cc(C4(O)CCC4)cc3F)n2)C1 [Example 67, 1-(4-{6-[({4-[(1R,3S,5S)-3-Amino-5-methylcyclohexyl]pyridin-3-yl}amino)methyl]-3-fluoropyridin-2-yl}-3,5-difluorophenyl)cyclobutanol] | ≤ 10 nM | 100 to 1000 nM | < 10 nM
C[C@@H]1C[C@H](N)C[C@H](c2ccncc2NCc2ccc(F)c(-c3c(F)cc(N4CCOCC4)cc3F)n2)C1 [Example 68, 4-[(1R,3S,5S)-3-Amino-5-methylcyclohexyl]-N-{[6-(2,6-difluoro-4-morpholin-4-ylphenyl)-5-fluoropyridin-2-yl]methyl}pyridin-3-amine] | ≤ 10 nM | 100 to 1000 nM | < 10 nM
C[C@@H]1C[C@H](N)CN(c2ccncc2NCc2nc(-c3c(F)cccc3F)sc2N)C1 [Example 69, N-{[5-Amino-2-(2,6-difluorophenyl)-1,3-thiazol-4-yl]methyl}-4-[(3S,5R)-3-amino-5-methylpiperidin-1-yl]pyridin-3-amine] | ≤ 10 nM | 1000 to 10000 nM | < 10 nM
C[C@@H]1C[C@H](N)CN(c2ccncc2NCc2ccc(F)c(-c3c(F)cc(N4CC[C@@H](F)C4)cc3F)n2)C1 [Example 70, 4-[(3S,5R)-3-Amino-5-methylpiperidin-1-yl]-N-[(6-{2,6-difluoro-4-[(3R)-3-fluoropyrrolidin-1-yl]phenyl}-5-fluoropyridin-2-yl)methyl]pyridin-3-amine] | ≤ 10 nM | 100 to 1000 nM | < 10 nM
C[C@@H]1C[C@H](N)CN(c2ccncc2NCc2ccc(F)c(-c3c(F)cc(N4CCCC(F)C4)cc3F)n2)C1 (stereo partly drawn) [Example 71, 4-[(3S,5R)-3-Amino-5-methylpiperidin-1-yl]-N-({6-[2,6-difluoro-4-(3-fluoropiperidin-1-yl)phenyl]-5-fluoropyridin-2-yl}methyl)pyridin-3-amine] | ≤ 10 nM | ≤ 100 nM | < 10 nM
C[C@@H]1C[C@H](N)CN(c2ccncc2NCc2ccc(F)c(-c3c(F)cc(N4CC(C)(O)C4)cc3F)n2)C1 [Example 72, 1-(4-{6-[({4-[(3S,5R)-3-Amino-5-methylpiperidin-1-yl]pyridin-3-yl}amino)methyl]-3-fluoropyridin-2-yl}-3,5-difluorophenyl)-3-methylazetidin-3-ol] | ≤ 10 nM | ≤ 100 nM | < 10 nM
C[C@H]1CN(c2ccncc2NCc2ccc(F)c(-c3c(F)cc(O[C@@H]4CCOC4)cc3F)n2)C[C@@H](N)[C@@H]1O [Example 73, (3R,4R,5S)-3-Amino-1-(3-{[(6-{2,6-difluoro-4-[(3R)-tetrahydrofuran-3-yloxy]phenyl}-5-fluoropyridin-2-yl)methyl]amino}pyridin-4-yl)-5-methylpiperidin-4-ol] | ≤ 10 nM | ≤ 100 nM | < 10 nM
C[C@@H]1C[C@H](N)CN(c2ccncc2NCc2ccc(F)c(-c3c(F)cc(O[C@@H]4CCOC4)cc3F)n2)C1 [Example 74, 4-[(3S,5R)-3-Amino-5-methylpiperidin-1-yl]-N-[(6-{2,6-difluoro-4-[(3R)-tetrahydrofuran-3-yloxy]phenyl}-5-fluoropyridin-2-yl)methyl]pyridin-3-amine] | ≤ 10 nM | ≤ 100 nM | < 10 nM
C[C@H]1CN(c2ccncc2NCc2ccc(F)c(-c3c(F)cc(O[C@H]4CCOC4)cc3F)n2)C[C@@H](N)[C@@H]1O [Example 75, (3R,4R,5S)-3-Amino-1-(3-{[(6-{2,6-difluoro-4-[(3S)-tetrahydrofuran-3-yloxy]phenyl}-5-fluoropyridin-2-yl)methyl]amino}pyridin-4-yl)-5-methylpiperidin-4-ol] | ≤ 10 nM | ≤ 100 nM | < 10 nM
C[C@@H]1C[C@H](N)CN(c2ccncc2NCc2ccc(F)c(-c3c(F)cc(O[C@H]4CCOC4)cc3F)n2)C1 [Example 76, 4-[(3S,5R)-3-Amino-5-methylpiperidin-1-yl]-N-[(6-{2,6-difluoro-4-[(3S)-tetrahydrofuran-3-yloxy]phenyl}-5-fluoropyridin-2-yl)methyl]pyridin-3-amine] | ≤ 10 nM | ≤ 100 nM | < 10 nM
C[C@H]1CN(c2ccncc2NCc2ccc(F)c(-c3c(F)cc(OC4CCOCC4)cc3F)n2)C[C@@H](N)[C@@H]1O [Example 77, (3R,4R,5S)-3-Amino-1-{3-[({6-[2,6-difluoro-4-(tetrahydro-2H-pyran-4-yloxy)phenyl]-5-fluoropyridin-2-yl}methyl)amino]pyridin-4-yl}-5-methylpiperidin-4-ol] | ≤ 10 nM | ≤ 100 nM | < 10 nM
